Experiments:
γ-secretase = target: T1, γ-secretase (Homo sapiens, UniProt P49768); assay: Screening for γ-secretase-modulating activity: Aβtotal in supernatant of SKNBE2 cells carrying hAPP 695 wild type (Alphalisa); format: cell-based; details: SKNBE2 human neuroblastoma cells carrying hAPP 695 wild type, overnight incubation, Aβtotal in cell supernatant
T1 construct: endogenous in cells; host or cells: SKNBE2 human neuroblastoma cells (carrying hAPP 695 wild type as substrate)
Procedure, shortened: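 SKNBE2 neuroblastoma cells expressing wild-type hAPP 695 plated at 10^4 cells/well in Ultraculture with test compound, incubated overnight at 37° C. Aβ42 (C-terminal/N-terminal antibody pair) and Aβtotal (N-terminal/4G8 pair) in supernatant quantified by AlphaLISA. IC50 from 4-parameter fit of percent of compound-free control.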

Aβ38 = assay: In vivo efficacy: brain soluble Aβ38 in non-transgenic rodents (MSD electrochemiluminescence multiplex); parameters: species or system mouse; details: dose 30 mg/kg oral dosing, brain soluble fraction, animals sacrificed after 4 h; for response vs control in vivo at 30 mg/kg: Mus musculus, po, 4 h, untreated animals (Ctrl) set at 100, read-out: Aβ38 (% vs Ctrl)_Mean
From the text: To determine whether acute administration of an Aβ38 increasing agents would increase Aβ38 levels in vivo, non-transgenic rodents, e.g. mice or rats were used. Animals treated with the Aβ38 increasing agents were examined and compared to those untreated or treated with vehicle and brain levels of soluble Aβ42, Aβ40, Aβ38, and Aβ37 were quantitated by MSD electrochemiluminescence detection technology. Treatment periods varied from hours (h) to days and were adjusted based on the results of the Aβ38 increase once a time course of onset of effect could be established.
A typical protocol for measuring Aβ38 increase in vivo is shown but it is only one of many variations that could be used to optimize the levels of detectable Aβ. For example, Aβ38 increasing agents were formulated in 20% of Captisol® (a sulfobutyl ether of β-cyclodextrin) in water or 20% hydroxypropyl βcyclodextrin. The Aβ38 increasing agents were administered as a single oral dose or by any acceptable route of administration to overnight fasted animals. After 4 h, the animals were sacrificed and Aβ38 levels were analysed.
Blood was collected by decapitation and exsanguinations in EDTA-treated collection tubes. Blood was centrifuged at 1900 g for 10 minutes (min) at 4° C. and the plasma recovered and flash frozen for later analysis. The brain was removed from the cranium and hindbrain. The cerebellum was removed and the left and right hemisphere were separated. The left hemisphere was stored at −18° C. for quantitative analysis of test compound levels. The right hemisphere was rinsed with phosphate-buffered saline (PBS) buffer and immediately frozen on dry ice and stored at −80° C. until homogenization for biochemical assays.
Mouse brains from non-transgenic animals were resuspended in 8 volumes of 0.4% DEA (diethylamine)/50 mM NaCl containing protease inhibitors (Roche-11873580001 or 04693159001) per gram of tissue, e.g. for 0.158 g brain, add 1.264 ml of 0.4% DEA. All samples were homogenized in the FastPrep-24 system (MP Biomedicals) using lysing matrix D (MPBio #6913-100) at 6 m/s for 20 seconds. Homogenates were centrifuged at 20800×g for 5 min and supernatants collected. Supernatants were centrifuged at 221.300×g for 50 min. The resulting high speed supernatants were then transferred to fresh eppendorf tubes. Nine parts of supernatant were neutralized with 1 part 0.5 M Tris-HCl pH 6.8 and used to quantify Aβ.
To quantify the amount of Aβ42, Aβ40, Aβ38, and Aβ37 in the soluble fraction of the brain homogenates, simultaneous specific detection of Aβ42, Aβ40, Aβ38, and Aβ37 was performed using MSD's electro-chemiluminescence multiplex detection technology. In this assay purified monoclonal antibodies specific for Abeta37 (JRD/Aβ37/3), Abeta38 (J&JPRD/Aβ38/5), Abeta40 (JRF/cAβ40/28), and Abeta42 (JRF/cAβ42/26) were coated on MSD 4-plex plates. Briefly, the standards (a dilution of synthetic Aβ42, Aβ40, Aβ38, and Aβ37) were prepared in 1.5 ml Eppendorf tube in Ultraculture, with final concentrations ranging from 10000 to 0.3 pg/m. The samples and standards were co-incubated with Sulfo-tag labelled JRF/rAβ/2 antibody to the N-terminus of Aβ as detector antibody. 50 μl of conjugate/sample or conjugate/standards mixtures were then added to the antibody-coated plate. The plate was allowed to incubate overnight at 4° C. in order to allow formation of the antibody-amyloid complex. Following this incubation and subsequent wash steps the assay was finished by adding read buffer according to the manufacturer's instructions (MesoScale Discovery, Gaitherburg, Md.).
The SULFO-TAG emits light upon electrochemical stimulation initiated at the electrode. MSD Sector instrument SI6000 was used for signal read-out.
In this model a Aβ38 increase compared to untreated animals would be advantageous, in particular a Aβ38 increase with at least 10%, more in particular a Aβ38 increase with at least 20%. […]

Structure (SMILES)	IC50 (γ-secretase) [µM]	response vs control in vivo at 30 mg/kg (Aβ38) [%]	Aβ38 (% vs Ctrl)_Mean (Aβ38; untreated animals (Ctrl) set at 100, 30 mg/kg) [% vs Ctrl]
Cc1cn(-c2ccc3n(c2=O)C[C@@H](C)N(Cc2cc(N4CCOC(C(F)(F)F)C4)cc(C(F)(F)F)c2)C3=O)cn1 (mixture of isomers) [compound 153]	> 10	108	–
Cc1cn(-c2ccc3n(c2=O)CCN(C(C)c2cccc(Cl)c2Cl)C3=O)cn1 (single isomer, unassigned) [10a]	> 10	–	–
Cc1cn(-c2ccc3n(c2=O)CC(C)N(C(C)c2cc(C(F)(F)F)cc(C(F)(F)F)c2)C3=O)cn1.Cl (single isomer, unassigned) [compound 111]	> 10	136	–
Cc1cn(-c2ccc3n(c2=O)CC(C)N(C(C)c2cc(C(F)(F)F)cc(C(F)(F)F)c2)C3=O)cn1.Cl (single isomer, unassigned) [compound 112]	> 10	–	153
CCC(c1cc(OC)cc(C(F)(F)F)c1)N1C(=O)c2ccc(-n3cnc(C)c3)c(=O)n2C[C@H]1C (single isomer, unassigned) [compound 141]	> 10	145	–
CCOc1cc(C(C)N2C(=O)c3ccc(-n4cnc(C)c4)c(=O)n3C[C@H]2C)cc(C(F)(F)F)c1 (single isomer, unassigned) [compound 143]	> 10	122	–
Cc1cn(-c2ccc3n(c2=O)CCN(C(C)c2c[nH]c4cc(F)c(Cl)cc24)C3=O)cn1 (single isomer, unassigned) [compound 183]	6.76	141	–
Cc1cn(-c2ccc3n(c2=O)CCN(C(C)c2cn(C)c4cc(F)c(Cl)cc24)C3=O)cn1 (single isomer, unassigned) [compound 185]	5.89	170	–
Cc1cn(-c2ccc3n(c2=O)CC(C)N(C(C)c2cn(C)c4cc(F)c(Cl)cc24)C3=O)cn1 (single isomer, unassigned) [compound 189]	–	116	–
CCn1cc(C(C)N2C(=O)c3ccc(-n4cnc(C)c4)c(=O)n3CC2C)c2cc(Cl)c(F)cc21 (single isomer, unassigned) [compound 192]	1.82	147	–
Cc1cn(-c2ccc3n(c2=O)CC(C)N(C(C)c2cn(C(C)C)c4cc(F)c(Cl)cc24)C3=O)cn1 (single isomer, unassigned) [compound 194]	1.55	197	–
Cc1cn(-c2ccc3n(c2=O)CC(C)N(C(C)c2c[nH]c4c(F)cc(Cl)cc24)C3=O)cn1 (single isomer, unassigned) [compound 219]	3.09	119	–
CCC1Cn2c(ccc(-n3cnc(C)c3)c2=O)C(=O)N1Cc1cc(C(F)(F)F)cc(C(F)(F)F)c1.Cl (stereo not shown) [compound 1]	> 10	–	–
Cc1cn(-c2ccc3n(c2=O)C[C@@H](C)N(Cc2ccc(Cl)c(Cl)c2)C3=O)cn1 [compound 2]	> 10	–	–
Cc1cn(-c2ccc3n(c2=O)CC(C)N(Cc2cc(C(F)(F)F)cc(C(F)(F)F)c2)C3=O)cn1 (stereo not shown) [compound 3]	> 10	133	–
Cc1cn(-c2ccc3n(c2=O)CCN(Cc2cccc(-c4ccccc4)c2)C3=O)cn1 [compound 5]	> 10	–	–
Cc1cn(-c2ccc3n(c2=O)CC(C)N(Cc2cc(OCC4CC4)cc(C(F)(F)F)c2)C3=O)cn1.Cl (stereo not shown) [compound 6]	> 10	118	–
CCc1cn(-c2ccc3n(c2=O)CC(C)N(Cc2cc(C(F)(F)F)cc(C(F)(F)F)c2)C3=O)cn1.Cl (stereo not shown) [compound 7]	> 10	–	–
Cc1cn(-c2ccc3n(c2=O)CCN(Cc2ccccc2C)C3=O)cn1 [compound 22]	> 10	–	–
Cc1cn(-c2ccc3n(c2=O)C[C@@H](C)N(Cc2cccc(C(C)(C)C)c2)C3=O)cn1 [compound 23]	> 10	–	–

Structure (SMILES)	IC50 (γ-secretase) [µM]	response vs control in vivo at 30 mg/kg (Aβ38) [%]	Aβ38 (% vs Ctrl)_Mean (Aβ38; untreated animals (Ctrl) set at 100, 30 mg/kg) [% vs Ctrl]
Cc1cn(-c2ccc3n(c2=O)C[C@@H](C)N(Cc2ccc(C(F)(F)F)c(C(F)(F)F)c2)C3=O)cn1 [compound 46]	> 10	–	–
Cc1cn(-c2ccc3n(c2=O)C[C@@H](C)N(CCc2cc(C(F)(F)F)cc(C(F)(F)F)c2)C3=O)cn1 [compound 50]	> 10	160	–
Cc1cc(CN2C(=O)c3ccc(-n4cnc(C)c4)c(=O)n3C[C@H]2C)cc(C(F)(F)F)c1 [compound 59]	> 10	–	–
Cc1cn(-c2ccc3n(c2=O)C[C@@H](C)N(Cc2ccc(Cl)c(C(F)(F)F)c2)C3=O)cn1 [compound 62]	> 10	–	–
Cc1cn(-c2ccc3n(c2=O)C[C@@H](C)N(Cc2cc(Cl)cc(C(F)(F)F)c2)C3=O)cn1 [compound 63]	> 10	–	–
Cc1cn(-c2ccc3n(c2=O)CCN(Cc2ccc(Cl)c(C(F)(F)F)c2)C3=O)cn1 [compound 65]	> 10	–	–
Cc1cn(-c2ccc3n(c2=O)C[C@@H](C)N(Cc2cc(N4CCC(C)CC4)ccc2Cl)C3=O)cn1 [compound 80]	> 10	133	–
Cc1cn(-c2ccc3n(c2=O)C[C@@H](C)N(Cc2cc(N4CCCC4)ccc2Cl)C3=O)cn1 [compound 82]	> 10	118	–
Cc1cn(-c2ccc3n(c2=O)CCN(Cc2ccc(C)c(N4CCCCC4)c2)C3=O)cn1 [compound 99]	> 10	–	–
Cc1cn(-c2ccc3n(c2=O)C[C@@H](C)N(Cc2cc(CC4CC4)cc(C(F)(F)F)c2)C3=O)cn1 [compound 110]	> 10	102	–
Cc1cn(-c2ccc3n(c2=O)C[C@@H](C)N(Cc2cc(C4CC4)cc(C(F)(F)F)c2)C3=O)cn1 [compound 116]	> 10	182	–
C[C@@H]1Cn2c(ccc(-n3cnc(Cl)c3)c2=O)C(=O)N1Cc1cc(C(F)(F)F)cc(C(F)(F)F)c1 [compound 118]	> 10	140	–
Cc1cn(-c2ccc3n(c2=O)C[C@@H](C)N(Cc2cc(OC(C)C)nc(C(F)(F)F)c2)C3=O)cn1 [compound 128]	> 10	162	–
COc1cccc(CN2C(=O)c3ccc(-n4cnc(C)c4)c(=O)n3C[C@H]2C)c1 [compound 132]	> 10	84	–
Cc1cn(-c2ccc3n(c2=O)C[C@@H](C)N(Cc2ccc(F)c(F)c2)C3=O)cn1 [compound 133]	> 10	84	–
Cc1cn(-c2ccc3n(c2=O)C[C@@H](C)N(Cc2cc(CC(F)(F)F)cc(C(F)(F)F)c2)C3=O)cn1 [compound 134]	> 10	138	–
Cc1cn(-c2ccc3n(c2=O)C[C@@H](C)N(Cc2cc(OC(F)(F)F)cc(C(F)(F)F)c2)C3=O)cn1 [compound 140]	> 10	96	–
Cc1cn(-c2ccc3n(c2=O)C[C@@H](C)N(Cc2cc(Br)cc(C(F)(F)F)c2)C3=O)cn1 [compound 145]	> 10	102	–
Cc1cn(-c2cc(F)c3n(c2=O)C[C@@H](C)N(Cc2cc(C(F)(F)F)cc(C(F)(F)F)c2)C3=O)cn1 [compound 158]	> 10	120	–

Reference: US20150141411A1, “SUBSTITUTED 3,4-DIHYDRO-2H-PYRIDO[1,2-A]PYRAZINE-1,6-DIONE DERIVATIVES USEFUL FOR THE TREATMENT OF (INTER ALIA) ALZHEIMER'S DISEASE” (Janssen Pharmaceuticals, Inc., priority 2012, published 2015)
